Data as given in US12018305B2, “Process for production of nigericin from Streptomyces sp. MCC-0151” (Council of Scientific & Industrial Research, priority 2018, dated 2024).
≈ marks a conversion by molar mass, not a printed value. Read-outs that look alike come from different tables or passages of the source.

Tests used:
[1] = test system: Staphylococcus aureus (ATCC 29737); assay: Antibacterial activity (MIC) against Staphylococcus aureus; format: cell-based
Source text: (§1) FIG. 1A depicts the inhibition of S. aureus growth at varying concentrations of nigericin from Streptomyces sp. MCC-0151. FIG. 1B depicts the antibacterial activity of nigericin from Streptomyces sp. MCC0151 against S. aureus.

[2] = test system: Staphylococcus epidermidis (ATCC 12228); assay: Antibacterial activity (MIC) against Staphylococcus epidermidis; format: cell-based; details: ATCC12228, range stated over five gram-positive microorganisms, read-out: minimum inhibitory concentration (MIC)
[3] = test system: Micrococcus luteus (ATCC 11880); assay: Antibacterial activity (MIC) against Micrococcus luteus; format: cell-based; details: ATCC11880, range stated over five gram-positive microorganisms, read-out: minimum inhibitory concentration (MIC)
Source text: as §1

[4] = test system: Bacillus cereus (ATCC 11778); assay: Antibacterial activity (MIC) against Bacillus cereus; format: cell-based; details: ATCC11778, range stated over five gram-positive microorganisms, read-out: minimum inhibitory concentration (MIC)
[5] = test system: Listeria monocytogenes (ATCC 19111); assay: Antibacterial activity (MIC) against Listeria monocytogenes; format: cell-based; details: ATCC19111, range stated over five gram-positive microorganisms, read-out: minimum inhibitory concentration (MIC)
Source text: as §1

P. falciparum strain 3D7 = assay: Antimalarial activity: inhibition of blood-stage malaria parasite growth (SybrGreen I); format: cell-based; details: Plasmodium falciparum, 60 h incubation
Protocol: Asexual stage of P. falciparum strain 3D7 (received as a gift from collaborator team) was maintained under standard conditions at 2% hematocrit with 0+ human erythrocytes (Blood obtained from Poona Serological Trust Blood Bank, Pune) in RPMI1640 containing 15 mM HEPES, 50 mg/L Gentamicin sulfate 10 mg/L hypoxanthine, 2 g/L sodium bicarbonate (Sigma-Aldrich) and 2.5 g/L AlbuMAX II (Thermo Fisher Scientific). Parasites were synchronized using 5% sorbitol (Sigma-Aldrich) for the enrichment of ring-stage parasite. In brief, P. falciparum cultures were collected by centrifugation at 1,000 g for 5 min at 25° C. and the parasitized RBC pellet was resuspended 5% sorbitol, followed by incubation at 37° C. for 10 min. Following incubation, the cells were pelleted and washed with complete medium, prior to placing the parasites back into culture flasks at 2% hematocrit and 2% parasitemia.
Assays were typically set up in 96-well plate format and 2% of parasitized culture was used per well. The stock solution of the nigericin was prepared in DMSO, and so 0.5% DMSO (equivalent to the DMSO present in the nigericin-treated samples) treatment was used as a control. […]

murine splenocytes = format: cell-based
Source text: FIG. 3 depicts a comparison of the in-vitro toxicity of nigericin isolated from Streptomyces sp. MCC-0151 and commercially available Nigericin on murine splenocytes. ‘▴’ represents nigericin from Streptomyces sp. MCC 0151 and ‘▾’ represents standard Nigericin.
MCCO151 and Sigma standard nigericin. Nigericin produced from Streptomyces sp.

in vivo = assay: in vivo; parameters: species or system Sprague Dawley rats; details: male, Sprague Dawley, rat
Protocol: Oral solution bioavailability was 2%.
Plasma Pharmacokinetics study of Nigericin was carried out using three different routes of administration i.e. Intravenous (IV), Oral (O) and Intraperitoneal (IP). Based on above study, the intraperitoneal route of administration was selected to study the toxicokinetic profiling of Nigericin.

[6] = Toxicokinetic study, 14-day repeated intraperitoneal administration in Sprague-Dawley rats; format: in vivo; details: for Tmax / AUClast / Cmax / AUC(0-t) / Cmax at 14 day / Tmax at 14 day: Sprague-Dawley, ip; for AUC(0-t): AUClast
Protocol: (§2) A 14-day repeat-intraperitoneal administration protocol was used for carrying out toxicokinetic studies with nigericin. Male and female animals were divided into three groups each based on the dose of nigericin administered (0.5, 1.5 and 5 mg/kg/day). Each group received the administration of the compound at the same dose every day for 14 days. The toxicokinetic parameters were quantified following the first (i.e., day-1) and last (i.e., day-14) administration of nigericin, and the findings are tabulated in Table-3. Following administration on day-1, nigericin was quantifiable in the plasma of the animals for up to 24 h, in all three dose-categories, in both genders. After the administration of the second dose on day-14, plasma concentrations were quantifiable up to 8 h for 0.5 mg/kg/day dose category and up to 24 h for 1.5 mg/kg/day dose category, in both genders.

Sprague-Dawley rats = assay: 14-day repeated intraperitoneal dose toxicity in Sprague-Dawley rats; format: in vivo; details: for mortality: female rats, 5 mg/kg/day IP, before Day 14, 5 mg/kg/day
Protocol: as §2
The 5 mg/kg/day was lethal in females.

[7] = female, rat, in vivo, 0.5 mg/kg/day
[8] = female, rat, in vivo, 1.5 mg/kg/day
[9] = male, rat, in vivo, 0.5 mg/kg/day, Cmax
[10] = male, rat, in vivo, 0.5 mg/kg/day, Tmax
[11] = male, rat, in vivo, 1.5 mg/kg/day
[12] = male, rat, in vivo, 1.5 mg/kg/day, Cmax
[13] = male, rat, in vivo, 1.5 mg/kg/day, Tmax
[14] = male, rat, in vivo, 5 mg/kg/day
[15] = male, rat, in vivo, 5 mg/kg/day, Cmax
[16] = male, rat, in vivo, 5 mg/kg/day, Tmax
[17] = 14-day repeated IP, conclusion of study

`CO[C@@H]1C[C@@H](C[C@H]2CC[C@H](C)[C@H]([C@@H](C)C(=O)O)O2)O[C@]2(O[C@](C)([C@H]3CC[C@@](C)([C@@H]4O[C@@H]([C@H]5O[C@@](O)(CO)[C@H](C)C[C@@H]5C)C[C@@H]4C)O3)C[C@H]2C)[C@@H]1C` [nigericin] showed an MIC ([1]; ATCC29737, against Staphylococcus aureus, read-out: MIC) of 0.21 µg/mL, an MIC ([1]; ATCC29737, against Staphylococcus aureus, read-out: MIC Conc.) of 0.288 µM and an MIC ([1]; Staphylococcus aureus, ATCC29737, range stated over five gram-positive microorganisms, read-out: minimum inhibitory concentration (MIC)) of 0.25 to 0.5 µM. The MIC ([1]; against Staphylococcus aureus, read-out: MIC) was 0.21 µg/mL, the MIC [2] was 0.25 to 0.5 µM (≈ 0.181 to 0.362 µg/mL) and the MIC [3] was 0.25 to 0.5 µM (≈ 0.181 to 0.362 µg/mL). It also gave an MIC [4] of 0.25 to 0.5 µM (≈ 0.181 to 0.362 µg/mL), an MIC [5] of 0.25 to 0.5 µM (≈ 0.181 to 0.362 µg/mL) and an IC50 (P. falciparum strain 3D7; read-out: IC50 against P. falciparum) of ~0.986 nM. For the same compound, the EC50 (P. falciparum strain 3D7; blood-stage parasite growth, n=3) was 2.4 nM, the “toxicity against murine splenocytes compared to commercially available nigericin (Sigma)” value (murine splenocytes) was “no statistically significant difference” and the Tmax (in vivo; ip, 2 mg/kg) was 15 min. The “plasma concentrations quantifiable up to” value (in vivo; ip, 2 mg/kg) was “up to 24 hr”, the “Vss relative to normal volume of total body water (0.7 L/kg)” value (in vivo; iv, 2 mg/kg) was 2.3 fold and the clearance (in vivo; iv, 2 mg/kg) was 15.1 mL/min/kg. For the same compound, the half-life (in vivo; iv, 2 mg/kg) was 212 min, the Tmax (in vivo; po, 10 mg/kg) was 37.8 min and the bioavailability (in vivo; po, 10 mg/kg) was 2%. The “plasma concentrations quantifiable up to” value (in vivo; po, 10 mg/kg) was “up to 24 hr”, the “male/female exposure ratio (AUClast)” value ([6]; Day 1, 0.5 mg/kg/day) was 2.11 and the “male/female exposure ratio (AUClast)” value ([6]; Day 1, 1.5 mg/kg/day) was 0.68. The “male/female exposure ratio (AUClast)” value ([6]; Day 1, 5 mg/kg/day) was 1.15, the “male/female exposure ratio (AUClast)” value ([6]; Day 14, 0.5 mg/kg/day) was 0.90 and the “male/female exposure ratio (AUClast)” value ([6]; Day 14, 1.5 mg/kg/day) was 1.21. For the same compound, the Tmax ([6]; rat, in vivo, Mean Tmax across the doses) was 4.8 to 25.2 min, the “accumulation following repeated intraperitoneal dose administration” value ([6]; across the doses, both genders) was “No trend of accumulation” and the “quantifiable in plasma for up to” value ([6]; day-1, all three doses (0.5, 1.5, 5 mg/kg/day IP), both genders) was “up to 24 h”. For the same compound, the “accumulation ratio (AUClast) on Day 14” value ([6]; female, 0.5 mg/kg/day) was 1.04, the “accumulation ratio (AUClast) on Day 14” value ([6]; female, 1.5 mg/kg/day) was 0.51 and the Dose exposure ratio ([6]; female, Day 1, dose increase 0.5 to 1.5 mg/kg/day) was 5.91. The Dose exposure ratio ([6]; female, Day 1, dose increase 1.5 to 5 mg/kg/day) was 2.33, the Dose exposure ratio ([6]; female, Day 14, dose increase 0.5 to 1.5 mg/kg/day) was 2.89 and the AUClast [6, 7] was 549.87 ng·h/mL. It also gave a Cmax [6, 7] of 222.17 ng/mL, an AUC(0-t) [6, 7] of 527 ng·h/mL and a Cmax ([6]; female, rat, in vivo, 0.5 mg/kg/day, Cmax) of 188 ng/mL. The Tmax ([6]; female, rat, in vivo, 0.5 mg/kg/day, Tmax) was 19.8 min, the AUClast [6, 8] was 1589.38 ng·h/mL and the Cmax [6, 8] was 710.63 ng/mL. For the same compound, the AUC(0-t) [6, 8] was 3120 ng·h/mL, the Cmax ([6]; female, rat, in vivo, 1.5 mg/kg/day, Cmax) was 840 ng/mL and the AUC(0-t) ([6]; female, rat, in vivo, 5 mg/kg/day) was 7260 ng·h/mL. The Cmax ([6]; female, rat, in vivo, 5 mg/kg/day, Cmax) was 2440 ng/mL, the Tmax ([6]; female, rat, in vivo, 5 mg/kg/day, Tmax) was 19.8 min and the “accumulation ratio (AUClast) on Day 14” value ([6]; male, 0.5 mg/kg/day) was 0.44. The “accumulation ratio (AUClast) on Day 14” value ([6]; male, 1.5 mg/kg/day) was 0.90, the “accumulation ratio (AUClast) on Day 14” value ([6]; male, 5 mg/kg/day) was 0.98 and the Dose exposure ratio ([6]; male, Day 1, dose increase 0.5 to 1.5 mg/kg/day) was 1.91. It also gave a Dose exposure ratio ([6]; male, Day 1, dose increase 1.5 to 5 mg/kg/day) of 3.93, a Dose exposure ratio ([6]; male, Day 14, dose increase 0.5 to 1.5 mg/kg/day) of 3.89 and a Dose exposure ratio ([6]; male, Day 14, dose increase 1.5 to 5 mg/kg/day) of 4.26. For the same compound, the Cmax [6, 9] was 403 ng/mL, the Cmax at 14 day [6, 9] was 200 ng/mL and the Tmax [6, 10] was 15 min. The Tmax at 14 day [6, 10] was 16.8 min, the AUClast [6, 11] was 2126.23 ng·h/mL and the AUC(0-t) [6, 11] was 1920 ng·h/mL. It also gave a Cmax [6, 12] of 830 ng/mL, a Cmax at 14 day [6, 12] of 815 ng/mL and a Tmax [6, 13] of 19.8 min. The Tmax at 14 day [6, 13] was 4.8 min, the AUClast [6, 14] was 8347.82 ng·h/mL and the AUC(0-t) [6, 14] was 8190 ng·h/mL. It also gave a Cmax [6, 15] of 2390 ng/mL, a Cmax at 14 day [6, 15] of 3060 ng/mL and a Tmax [6, 16] of 19.8 min. The Tmax at 14 day [6, 16] was 19.8 min, the “plasma exposure (AUClast) with increase in dose” value ([6]; rat, in vivo) was “dose-related increase” and the abnormal clinical signs (Sprague-Dawley rats; 0.5 mg/kg/day IP, 14 consecutive days) was “did not result in abnormal clinical signs”. The “dose that can be lethal” value (Sprague-Dawley rats; [17]) was “above 5 mg/kg”, the “dose that will not cause any clinical adversity” value (Sprague-Dawley rats; [17]) was < 1.5 mg/kg and the mortality (Sprague-Dawley rats) was “Mortality was observed”. The mortality (Sprague-Dawley rats; listed as Nigericin) was “lethal”, the mortalities (Sprague-Dawley rats; up to 1.5 mg/kg/day IP, 14 consecutive days) was “did not result in” and the “effect on ophthalmoscopy, coagulation, urinalysis and reticulocytes count” value (Sprague-Dawley rats; up to highest surviving dose 1.5 mg/kg/day IP) was “no test item related effect”.
